Laboratory results published in patent US9856274B2, “Substituted pyrazolo[1,5-a]pyridines as PDE-10 inhibitors” (Sunovion Pharmaceuticals Inc., priority 2011, dated 2018).

Target: recombinant human PDE-10 enzyme (Homo sapiens (Human), UniProt Q9Y233)
Experiment: Human PDE-10 inhibition enzyme assay (IMAP PDE Fluorescence Polarization)
Assay type: biochemical
Conditions: recombinant human PDE-10 expressed in baculoviral system; Fluorescein-labeled cAMP/cGMP substrate; 40-minute incubation at 37° C.
Protocol: In one embodiment, the compounds provided herein were assayed for their ability to inhibit human PDE-10A. In one embodiment, the activities of the compounds were determined using the Molecular Devices IMAP PDE Fluorescence Polarization assay using recombinant human PDE-10 enzyme expressed in a baculoviral system. Briefly, 10 μL of a compound (0.2 nM-20 μM) was added to either a 96-well half area black plate or a 384-well black plate along with 10 μL of Fluorescein-labeled cAMP/cGMP substrate as per manufacturer's instructions and 10 μL of PDE enzyme (activity 0.1 U). Following a 40-minute incubation at 37° C., 60 μL of IMAP binding reagent was added. The plate was then read on a Perkin Elmer Victor (480-535 nm). The data was analyzed using Prism Software (GraphPad Inc, San Diego, Calif.).

recombinant human PDE-10 enzyme, sequence (Q9Y233 whole entry): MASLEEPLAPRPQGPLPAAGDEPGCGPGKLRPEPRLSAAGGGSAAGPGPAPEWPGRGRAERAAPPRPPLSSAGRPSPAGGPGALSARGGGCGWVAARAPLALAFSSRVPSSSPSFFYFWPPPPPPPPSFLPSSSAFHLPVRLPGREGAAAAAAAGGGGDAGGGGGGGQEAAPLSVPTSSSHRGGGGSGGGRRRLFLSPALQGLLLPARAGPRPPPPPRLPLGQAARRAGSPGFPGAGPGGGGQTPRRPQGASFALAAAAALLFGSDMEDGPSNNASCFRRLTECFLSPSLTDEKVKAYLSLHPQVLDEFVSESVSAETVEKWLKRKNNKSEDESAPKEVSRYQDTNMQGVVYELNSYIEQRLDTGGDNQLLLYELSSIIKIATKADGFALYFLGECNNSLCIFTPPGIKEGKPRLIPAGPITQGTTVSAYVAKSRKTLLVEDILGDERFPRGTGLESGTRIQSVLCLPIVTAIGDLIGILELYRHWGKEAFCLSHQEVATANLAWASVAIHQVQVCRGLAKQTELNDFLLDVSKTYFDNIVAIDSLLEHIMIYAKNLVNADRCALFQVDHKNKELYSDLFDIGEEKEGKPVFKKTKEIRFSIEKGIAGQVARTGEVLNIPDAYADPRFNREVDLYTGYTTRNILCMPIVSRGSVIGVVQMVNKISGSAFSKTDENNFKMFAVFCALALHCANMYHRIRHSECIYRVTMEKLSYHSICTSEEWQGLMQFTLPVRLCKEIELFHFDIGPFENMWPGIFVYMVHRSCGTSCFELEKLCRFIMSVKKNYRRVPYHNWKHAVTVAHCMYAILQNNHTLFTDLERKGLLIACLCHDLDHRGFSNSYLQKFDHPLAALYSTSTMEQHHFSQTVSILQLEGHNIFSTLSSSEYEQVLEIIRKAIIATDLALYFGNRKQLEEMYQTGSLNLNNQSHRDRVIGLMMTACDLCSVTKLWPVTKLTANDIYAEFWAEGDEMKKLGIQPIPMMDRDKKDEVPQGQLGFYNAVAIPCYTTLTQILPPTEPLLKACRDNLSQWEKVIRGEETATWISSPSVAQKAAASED

SMILES | IC50
Cn1c(CCc2nc3ccccn3n2)nc2c3nccnc3ccc21 [Compound 21] | 0.1 to 0.5 µM
Cn1c(CCc2nc3ccccn3n2)nc2c3cccnc3ccc21 [Compound 5] | 0.01 to 0.1 µM
Cc1ncc(C)n2nc(CCc3nc4c5c(ccc4n3C)OCCO5)nc12 [Compound 42] | ≤ 0.01 µM
Cc1ncc(C)n2nc(CCc3nc4c5cccnc5ccc4n3C)cc12 [Compound 24] | ≤ 0.01 µM
Cc1ccc(Cl)c2cc(CCc3nc4c5cccnc5ccc4n3C)nn12 [Compound 33] | ≤ 0.01 µM
Cn1c(CCc2cn3ccccc3n2)nc2c3cccnc3ccc21 [Compound 26] | > 0.5 µM
Cc1ncc(C)n2nc(CCc3nc4c5cccnc5ccc4n3C)nc12 [Compound 6] | ≤ 0.01 µM
Cc1ccc(C)n2cc(CCc3nc4c5cccnc5ccn4n3)nc12 [Compound 34] | 0.1 to 0.5 µM
c1cnc2ccn3nc(CCc4nc5ccccn5n4)nc3c2c1 [Compound 15] | > 0.5 µM
Cc1ncc(C)n2nc(CCc3nc4c5c(ccn4c3C)NCCO5)nc12 [Compound 41] | 0.01 to 0.1 µM
Cc1ncc(C)n2nc(CC(C)c3nc4c5cccnc5ccc4n3C)nc12 (centres unmarked) [Compound 30] | 0.01 to 0.1 µM
Cc1ncc(C)n2nc(CCc3nc4c5ncccc5ccc4n3C)nc12 [Compound 18] | ≤ 0.01 µM
Cc1ncc(C)n2nc(CCc3nc4c5cccnc5ccn4c3C)nc12 [Compound 39] | ≤ 0.01 µM
Cc1ncc(C)n2nc(CCc3cn4ccccc4n3)nc12 [Compound 1] | 0.01 to 0.1 µM
Cc1ccc(C)n2nc(CCc3nc4c5cccnc5ccn4n3)nc12 [Compound 16] | ≤ 0.01 µM
Cc1ncc(C)n2nc(CCc3nc4c5cccnc5sc4n3C)nc12 [Compound 7] | ≤ 0.01 µM
Cn1c(CCc2nc3ccccc3o2)nc2c3cccnc3ccc21 [Compound 4] | 0.1 to 0.5 µM
Cc1ncc(C)n2nc(C(C)Cc3nc4c5cccnc5ccc4n3C)nc12 (centres unmarked) [Compound 29] | ≤ 0.01 µM
Cc1ncc(C)n2nc(CCc3nc4c(ccc5ncccc54)[nH]3)cc12 [Compound 28] | 0.01 to 0.1 µM
Cn1c(CCc2nc3ccccn3n2)nc2c3ncccc3ccc21 [Compound 20] | 0.1 to 0.5 µM
Cc1cc(C)n2nc(CCc3nc4c5cccnc5ccn4n3)nc2n1 [Compound 17] | 0.01 to 0.1 µM

SMILES | IC50
Cc1ncc(C)n2nc(CCc3nc4ccccn4n3)nc12 [Compound 3] | > 0.5 µM
Cn1c(CCc2cn3ccncc3n2)nc2c3cccnc3ccc21 [Compound 31] | > 0.5 µM
Cc1ncc(C)n2nc(CCc3nc4c(ccc5ncccc54)[nH]3)nc12 [Compound 36] | ≤ 0.01 µM
Cc1c(CCc2nc3c(F)ccc(C)n3n2)nc2c3cccnc3ccn12 [Compound 40] | ≤ 0.01 µM
Cc1ncc(C)n2nc(CCc3nc4ccc5ncccc5n4n3)nc12 [Compound 12] | 0.1 to 0.5 µM
Cc1cccn2nc(CCc3nc4c5cccnc5ccc4n3C)nc12 [Compound 9] | ≤ 0.01 µM
Cc1ncc(C)n2nc(CCc3nc4c5c(ccn4c3C)CCCC5)nc12 [Compound 38] | ≤ 0.01 µM
Cc1ccc(C)n2cc(CCc3nc4c5cccnc5ccc4n3C)nc12 [Compound 32] | 0.01 to 0.1 µM
Cc1ncc(C)n2nc(CCc3nc4c5cccnc5ccn4n3)cc12 [Compound 35] | 0.01 to 0.1 µM
Cc1cccc2nc(CCc3nc4c5cccnc5ccn4n3)nn12 [Compound 14] | 0.01 to 0.1 µM
Cc1cnc(C)n2nc(CCc3nc4c5cccnc5ccc4n3C)nc12 [Compound 10] | 0.01 to 0.1 µM
Cc1ncc(C)n2nc(CCc3nc4c5cccnc5ccn4n3)nc12 [Compound 13] | 0.01 to 0.1 µM
c1cnc2c(c1)ccn1nc(CCc3nc4ccccn4n3)nc21 [Compound 22] | > 0.5 µM
Cc1ncc(C)n2cc(CCc3nc4c5cccnc5ccc4n3C)nc12 [Compound 25] | 0.01 to 0.1 µM
Cc1ncc(C)n2cc(CCc3nc4c5cccnc5ccn4n3)nc12 [Compound 27] | 0.01 to 0.1 µM
Cc1ccc(C)n2nc(CCc3nc4c5cccnc5ccc4n3C)nc12 [Compound 11] | ≤ 0.01 µM
Cc1cccc2nc(CCc3nc4c5cccnc5ccc4n3C)nn12 [Compound 8] | ≤ 0.01 µM
Cc1ncc(C)n2nc(CCc3nc4c5c(ccc4n3C)CCCC5)nc12 [Compound 37] | ≤ 0.01 µM
Cc1cccc2nc(CCc3nc4n(n3)CCc3ncccc3-4)nn12 [Compound 23, 2-(2-(5-Methyl-[1,2,4]triazolo[1,5-a]pyridin-2-yl)ethyl)-5,6-dihydro-[1,2,4]triazolo[5,1-f][1,6]naphthyridine] | > 0.5 µM
Cc1ncc(C)n2nc(CCc3nc4c5nccnc5ccc4n3C)nc12 [Compound 19] | ≤ 0.01 µM
